{"source": "patent US20250257331A1", "about": "“FLAVONOID GLYCOSIDE GLYCOSYLTRANSFERASE LbUGT71BX1 IN LAPORTEA BULBIFERA AS WELL AS THE CODING GENE AND THE USE THEREOF” (INSTITUTE OF CHINESE MATERIA MEDICA CHINA ACADEMY OF …, priority 2024, published 2025)", "tested_on": "glycosyltransferase LbUGT71BX1", "assay": "in-vitro enzyme activity testing of recombinant LbUGT71BX1 with flavonoid substrates and UDP-sugar donors (LC-Q-TOF-MS)", "type": "biochemical, Laportea bulbifera", "conditions": "purified recombinant enzyme, 37° C., 1 hour, Tris-HCl pH 7.5, compared with pMAL-c2X empty control", "experimental": "The in-vitro enzyme activity testing steps are as follows: the 50 μL reaction system contained 1 μL flavonoid substrate (40 mM) (kaempferol or myricetin or gossypetin or quercetagetin), 1 μL UDP-sugar donor (100 mM) (UDP-galactose or UDP-glucose) and […] purified enzyme, and Tris-HCl buffer (pH 7.5) was used to complement the system. With the pMAL-c2X empty crude enzyme catalytic system as a negative control, place the reaction system at 37° C. for 1 hour, and add the same volume of methanol to stop the reaction. Concentrate the above mixture in vacuo and reconstitute it with 100 μL of methanol. Perform filtration using a 0.22 m microporous membrane and transfer the sample to a liquid vial for assay. Use the Agilent 1290 Infinity II-6430 Q-TOF to test the sample. The specific liquid conditions are as follows: (1) Column: ACQUITY UPLC BEH C18 1.7 m 2.1×100 mm; (2) Mobile phase: 0.1% pure water for phase A and chromatographic acetonitrile for phase B; (3) Flow rate: 0.3 mL/min; (4) Column temperature: 40° C.; (5) Injection volume: 1.0 μL; (6) Elution conditions are shown in Table 6. The mass spectrometry conditions are: the ion mode is negative ion, the scan range is 100-3000; the mode is Automated MS/MS; the ion fragment collision energy is 20 V; the source temperature is 350° C.; the nebulizer pressure is set to 30 psi.", "note": "Entries after “also recorded” stand apart in the source; their conditions may differ."}
{"smiles": "O=c1c(O)c(-c2ccc(O)cc2)oc2cc(O)cc(O)c12", "note": "[kaempferol]", "values": [{"measurement": "product generated from the flavonoid substrate by LbUGT71BX1", "setting": "UDP-galactose as sugar donor", "result": "kaempferol-3-O-galactoside"}, {"measurement": "product generated from the flavonoid substrate by LbUGT71BX1", "setting": "UDP-glucose as sugar donor", "result": "kaempferol-3-O-glucoside"}]}
{"smiles": "O=c1c(O)c(-c2cc(O)c(O)c(O)c2)oc2cc(O)cc(O)c12", "note": "[myricetin]", "values": [{"measurement": "product generated from the flavonoid substrate by LbUGT71BX1", "setting": "UDP-galactose as sugar donor", "result": "myricetin-3-O-galactoside"}, {"measurement": "product generated from the flavonoid substrate by LbUGT71BX1", "setting": "UDP-glucose as sugar donor", "result": "myricetin-3-O-glucoside; also recorded: myricetin-7-O-glucoside"}]}
{"smiles": "O=c1c(O)c(-c2ccc(O)c(O)c2)oc2c(O)c(O)cc(O)c12", "note": "[gossypetin]", "values": [{"measurement": "product generated from the flavonoid substrate by LbUGT71BX1", "setting": "UDP-glucose as sugar donor", "result": "gossypetin-3-O-glucoside"}]}
